Assay: Cu^2+-induced SDS-resistant polymerization of Aβ peptides, western blot image analysis
Assay type: biochemical, human
Conditions: for conversion of monomer to dimer / conversion of monomer to trimer: Cu^2+ 30 μM
Method: Following incubation (37° C.), aliquots of each reaction (2 ng peptide) were collected at 0 d, 1 d, 3 d and 5 d and western blotted using anti-Aβ monoclonal antibody 8E10 (FIG. 9). Migration of the molecular size markers are indicated (kDa). […] It should be noted that other means of visualizing and/or determining the presence or absence of polymerization other than western blot analysis may be used. Such other means include but are not limited to density sedimentation by centrifugation of the samples.
The generation of SDS-resistant Aβ polymers by metal ions was tested by incubating Cu^2+ (30 μM) or Zn^2+ (30 μM) at pH 6.6, 7.4 and 9.0 with Aβ1-40.
(0-30 μM) at pH 7.4 and 6.6 and the samples analyzed by Western blot and the signal quantitated using the Fluoro-S Image Analysis System (Bio-Rad, Hercules, Calif.) as previously described.

In the case of “Aβ1-40: synthetic human Aβ peptide, residues 1-40”, the “conversion of monomer to dimer” value (pH 6.6, 5 d) is reported as 29%, the “conversion of monomer to trimer” value (pH 6.6, 5 d) is reported as 2% and the “conversion of monomer to dimer” value (pH 7.4, 5 d) is reported as 42%. The “conversion of monomer to trimer” value (pH 7.4, 5 d) was 9%, the “peptide converted to SDS-resistant dimer” value (no added metal, pH 6.6, 7.4 or 9.0, 5 d) was “Less than 4%” and the “SDS-resistant polymers: Dimer” value (pH 6.6, [Cu^2+] 0) was 2.1. The “SDS-resistant polymers: Monomer” value (pH 6.6, [Cu^2+] 0) was 97.9, the “SDS-resistant polymers: Pentamer” value (pH 6.6, [Cu^2+] 0) was 0 and the “SDS-resistant polymers: Tetramer” value (pH 6.6, [Cu^2+] 0) was 0. The “SDS-resistant polymers: Trimer” value (pH 6.6, [Cu^2+] 0) was <0.1, the “SDS-resistant polymers: Dimer” value (pH 6.6, [Cu^2+] 0.5) was 2.2 and the “SDS-resistant polymers: Monomer” value (pH 6.6, [Cu^2+] 0.5) was 97.6. The “SDS-resistant polymers: Pentamer” value (pH 6.6, [Cu^2+] 0.5) was 0, the “SDS-resistant polymers: Tetramer” value (pH 6.6, [Cu^2+] 0.5) was 0 and the “SDS-resistant polymers: Trimer” value (pH 6.6, [Cu^2+] 0.5) was 0.2. For the same substance, the “SDS-resistant polymers: Dimer” value (pH 6.6, [Cu^2+] 1) was 7.3, the “SDS-resistant polymers: Monomer” value (pH 6.6, [Cu^2+] 1) was 92.6 and the “SDS-resistant polymers: Pentamer” value (pH 6.6, [Cu^2+] 1) was 0. For the same substance, the “SDS-resistant polymers: Tetramer” value (pH 6.6, [Cu^2+] 1) was 0, the “SDS-resistant polymers: Trimer” value (pH 6.6, [Cu^2+] 1) was 0.1 and the “SDS-resistant polymers: Dimer” value (pH 6.6, [Cu^2+] 5) was 9.8. The “SDS-resistant polymers: Monomer” value (pH 6.6, [Cu^2+] 5) was 90.1, the “SDS-resistant polymers: Pentamer” value (pH 6.6, [Cu^2+] 5) was 0 and the “SDS-resistant polymers: Tetramer” value (pH 6.6, [Cu^2+] 5) was 0. The “SDS-resistant polymers: Trimer” value (pH 6.6, [Cu^2+] 5) was 0.1, the “SDS-resistant polymers: Dimer” value (pH 6.6, [Cu^2+] 10) was 16.1 and the “SDS-resistant polymers: Monomer” value (pH 6.6, [Cu^2+] 10) was 79.4. The “SDS-resistant polymers: Pentamer” value (pH 6.6, [Cu^2+] 10) was 0, the “SDS-resistant polymers: Tetramer” value (pH 6.6, [Cu^2+] 10) was 0 and the “SDS-resistant polymers: Trimer” value (pH 6.6, [Cu^2+] 10) was 4.5. The “SDS-resistant polymers: Dimer” value (pH 6.6, [Cu^2+] 30) was 13.2, the “SDS-resistant polymers: Monomer” value (pH 6.6, [Cu^2+] 30) was 74.5 and the “SDS-resistant polymers: Pentamer” value (pH 6.6, [Cu^2+] 30) was 0. For the same substance, the “SDS-resistant polymers: Tetramer” value (pH 6.6, [Cu^2+] 30) was 0, the “SDS-resistant polymers: Trimer” value (pH 6.6, [Cu^2+] 30) was 12.2 and the increase in dimerization (pH 6.6, [Cu^2+] increased from 0.5 to 1 μM) was “over 3 fold”. The “SDS-resistant polymers: Dimer” value (pH 7.4, [Cu^2+] 0) was 3.2, the “SDS-resistant polymers: Monomer” value (pH 7.4, [Cu^2+] 0) was 96.8 and the “SDS-resistant polymers: Pentamer” value (pH 7.4, [Cu^2+] 0) was 0. For the same substance, the “SDS-resistant polymers: Tetramer” value (pH 7.4, [Cu^2+] 0) was 0, the “SDS-resistant polymers: Trimer” value (pH 7.4, [Cu^2+] 0) was <0.1 and the “SDS-resistant polymers: Dimer” value (pH 7.4, [Cu^2+] 0.5) was 4.9. For the same substance, the “SDS-resistant polymers: Monomer” value (pH 7.4, [Cu^2+] 0.5) was 94.8, the “SDS-resistant polymers: Pentamer” value (pH 7.4, [Cu^2+] 0.5) was 0 and the “SDS-resistant polymers: Tetramer” value (pH 7.4, [Cu^2+] 0.5) was 0. For the same substance, the “SDS-resistant polymers: Trimer” value (pH 7.4, [Cu^2+] 0.5) was 0.3, the “SDS-resistant polymers: Dimer” value (pH 7.4, [Cu^2+] 1) was 5.9 and the “SDS-resistant polymers: Monomer” value (pH 7.4, [Cu^2+] 1) was 93.6. The “SDS-resistant polymers: Pentamer” value (pH 7.4, [Cu^2+] 1) was 0, the “SDS-resistant polymers: Tetramer” value (pH 7.4, [Cu^2+] 1) was 0 and the “SDS-resistant polymers: Trimer” value (pH 7.4, [Cu^2+] 1) was 0.6. For the same substance, the “SDS-resistant polymers: Dimer” value (pH 7.4, [Cu^2+] 5) was 14.2, the “SDS-resistant polymers: Monomer” value (pH 7.4, [Cu^2+] 5) was 84.3 and the “SDS-resistant polymers: Pentamer” value (pH 7.4, [Cu^2+] 5) was 0. For the same substance, the “SDS-resistant polymers: Tetramer” value (pH 7.4, [Cu^2+] 5) was 0, the “SDS-resistant polymers: Trimer” value (pH 7.4, [Cu^2+] 5) was 1.5 and the “SDS-resistant polymers: Dimer” value (pH 7.4, [Cu^2+] 10) was 13.2. The “SDS-resistant polymers: Monomer” value (pH 7.4, [Cu^2+] 10) was 85.2, the “SDS-resistant polymers: Pentamer” value (pH 7.4, [Cu^2+] 10) was 0 and the “SDS-resistant polymers: Tetramer” value (pH 7.4, [Cu^2+] 10) was 0. For the same substance, the “SDS-resistant polymers: Trimer” value (pH 7.4, [Cu^2+] 10) was 1.6, the “SDS-resistant polymers: Dimer” value (pH 7.4, [Cu^2+] 30) was 19.1 and the “SDS-resistant polymers: Monomer” value (pH 7.4, [Cu^2+] 30) was 76.2. For the same substance, the “SDS-resistant polymers: Pentamer” value (pH 7.4, [Cu^2+] 30) was 0, the “SDS-resistant polymers: Tetramer” value (pH 7.4, [Cu^2+] 30) was 0 and the “SDS-resistant polymers: Trimer” value (pH 7.4, [Cu^2+] 30) was 4.7.
